Measurements published in patent US20090088441A1, “Quinoline Compounds” (priority 2007, published 2009).
pEC50: −log10 of the molar value.

Legend:
[1] = molecular target: T1, GABABR1a/GABABR2 heterodimer (Homo sapiens, UniProt O75899+Q9UBS5); assay: GTPγS35 radioligand filtration-binding assay for determination of agonist potency; type: biochemical; details: membranes of CHO K1 Flp-In cells expressing GABABR1a/GABABR2; 30° C., 1 hour
T1 construct: expressed in transfected cells; membrane preparation
Experimental: (§1) The potency and efficacy of the compounds acting as agonists at the GABAB receptor was also determined in a automated GTPγS^35 radioligand filtration-binding assay.
(§2) The GABAB receptor is a G-protein coupled receptor. Binding of a ligand activates the receptor leading to recruitment of G-protein and a substitution of the G-protein bound GDP to GTP. The G-protein becomes active. The G-protein is inactivated by hydrolysis of GTP to GDP. G-proteins are membrane bound and therefore present in membrane preparations.
(§3) In the GTPγS^35 assay, GTP is not present but instead GTPγS^35 where one of the phosphate groups are substituted to a sulphur group which cannot be hydrolysed. Upon activation of the receptor, radiolabelled GTPγS^35 replaces the GDP. The complex cannot be inactivated and the radiolabelled complex is accumulating. At the end of the assay, the reaction mixture is filtered through a membrane-binding filter. Excess GTPγS^35 is removed by washing and the membrane bound S^35, which correlates to the degree of receptor activation, is measured with a β-Liquid Scintillation Counter.
The human GABABR1a was subcloned into pIRESneo3 (Clontech) using GABABR1a construct as a template (refseqN NM001470). GABABR2 was subcloned into pcDNA5/FRT (Invitrogen) using GABABR2 construct as a template (refseqN NM005458). The Kozak sequence GCCACC was introduced before the start codon in both constructs.
For generation of stable cell lines, CHO K1 Flp-In cells (Invitrogen) were grown in DMEM/F12 1:1 media supplemented with 10% FBS at 37° C. in a humidified CO2-incubator. The cells were detached with Accutase and 1.5 million cells were seeded into T75 flasks. After 24 h, transfection of the cells were performed with the GABABR2 construct. For generation of cell lines expressing GABABR2, GABABR2 plasmid (1 μg) and pOG44 from Invitrogen (9 μg) were mixed with 30 μl Lipofectamine 2000 in 600 μl OptiMEM for 20 minutes. The cells were exposed to transfection medium for 5 hours and was then replaced with culture medium. After 2 days 0.5 mg/ml Hygromycin were added to culture medium. The cells were cultured for an additional 10 days to establish a stable cell mix expressing GABABR2. For generation of a cell line expressing the GABABR1a/GABABR2 hetrodimer, GABABR1a plasmid DNA (8 μg) and Lipofectamine (30 μl) were mixed in 600 μl OptiMEM and incubated for 20 minutes before added to CHO-Flp-In cells expressing GABABR2. After 2 days additional selection agent was added (0.8 mg/ml Geneticin). The cells were cultured for another 10 days to generate a stable mixed population expressing the GABABR1a/GABABR2 heterodimer. The cell line was analyzed by GTPγS^35 assay with GABA as agonist.
GTPγS^35 radioligand filtration-binding assays were performed using an automated workstation at 30° C. for 1 hour in assay buffer (50 mM HEPES, 40 mM NaCl, 1 mM MgCl2×6H2O, 30 μg/mL Saponin, pH 7.4 at RT) containing 0.025 μg/μL of membrane protein (prepared from the cell line described above), 10 μM GDP and 0.55 nCi/μL GTPγS^35 in a final volume of 60 μL. The reaction was started by the addition of compounds (GABA was always included as a positive control), start concentration 100 μM dilution factor 3. The reaction was terminated and membranes collected by addition of ice-cold wash buffer (50 mM Tris-HCl, 5 mM MgCl2×6H2O, 50 mM NaCl, pH 7.4 at 4° C.) followed by rapid filtration under vacuum through a MultiScreen HTS 384 FB filter plate. Repeated washing of the filters with ice-cold wash buffer washed the unbound radioligand away. The filter plates were dried for 1½-2 hours at 50° C., then 8 μL scintillation liquid was added per well followed by incubation at RT for at least 20 minutes before bound radioactivity was determined using a β-Liquid Scintillation Counter (1450 Microbeta Trilux, Wallac, Finland)
100% activation (max) is calculated as the mean value for wells containing 1 mM GABA. […]

[2] = molecular target: T2, GABAB(1A,2) receptor heterodimer (Homo sapiens, UniProt O75899+Q9UBS5); assay: GTPγS35 radioligand filtration-binding assay for determination of PAM potency; type: biochemical; details: membranes of CHO-K1 cells expressing GABABR1a/GABABR2; GABA dose-response with 10, 1, 0.1 and 0.01 μM PAM; concentration reducing GABA's EC50 by 50%; read-out: Mean (EC50 derived) PAM EC50
T2 construct: expressed in transfected cells; membrane preparation
Experimental: The effect of GABA in an automated GTPγS^35 radioligand filtration-binding assay in CHO cells expressing the GABAB(1A,2) receptor heterodimer was studied in the presence or absence of the positive allosteric modulator test compounds.
as §1, §2, §3
GABABR1a and GABABR2 were cloned from human brain cDNA and subcloned into pCI-Neo (Promega) and pALTER-1 (Promega), respectively.
In order to optimise the Kozak consensus sequence of GABABR2, in situ mutagenesis was performed using the Altered Sites Mutagenesis kit according to manufacturer's instruction (Promega) with the following primer, 5′-[…]-3′. The optimised GABABR2 was then restricted from pALTER-1 with Xho I+Kpn I and subcloned into the mammalian expression vector pcDNA3.1 (−)/Zeo (Invitrogen) to produce the final construct, pcDNA3.1 (−)/Zeo-GABABR2.
For generation of stable cell lines, CHO-K1 cells were grown in Nut mix F-12 (Ham) media supplemented with 10% FBS, 100 U/ml Penicillin and 100 μg/ml Streptomycin at 37° C. in a humidified CO2-incubator. The cells were detached with 1 mM EDTA in PBS and 1 million cells were seeded in 100 mm petri dishes. After 24 hours the culture media was replaced with OptiMEM and incubated for 1 hour in a CO2-incubator.
For generation of a cell line expressing the GABABR1a/GABABR2 heterodimer, GABABR1a plasmid DNA ([…]) GABABR2 plasmid DNA (4 μg) and lipofectamine (24 μl) were mixed in 5 ml OptiMEM and incubated for 45 minutes at room temperature. […] After expansion, the GABAB receptor functional response was tested by measuring the GABAB receptor dependent release of intracellular calcium in a fluorescence imaging plate reader (FLIPR). […]

T1 sequence (Q9UBS5 15-961 limits assumed): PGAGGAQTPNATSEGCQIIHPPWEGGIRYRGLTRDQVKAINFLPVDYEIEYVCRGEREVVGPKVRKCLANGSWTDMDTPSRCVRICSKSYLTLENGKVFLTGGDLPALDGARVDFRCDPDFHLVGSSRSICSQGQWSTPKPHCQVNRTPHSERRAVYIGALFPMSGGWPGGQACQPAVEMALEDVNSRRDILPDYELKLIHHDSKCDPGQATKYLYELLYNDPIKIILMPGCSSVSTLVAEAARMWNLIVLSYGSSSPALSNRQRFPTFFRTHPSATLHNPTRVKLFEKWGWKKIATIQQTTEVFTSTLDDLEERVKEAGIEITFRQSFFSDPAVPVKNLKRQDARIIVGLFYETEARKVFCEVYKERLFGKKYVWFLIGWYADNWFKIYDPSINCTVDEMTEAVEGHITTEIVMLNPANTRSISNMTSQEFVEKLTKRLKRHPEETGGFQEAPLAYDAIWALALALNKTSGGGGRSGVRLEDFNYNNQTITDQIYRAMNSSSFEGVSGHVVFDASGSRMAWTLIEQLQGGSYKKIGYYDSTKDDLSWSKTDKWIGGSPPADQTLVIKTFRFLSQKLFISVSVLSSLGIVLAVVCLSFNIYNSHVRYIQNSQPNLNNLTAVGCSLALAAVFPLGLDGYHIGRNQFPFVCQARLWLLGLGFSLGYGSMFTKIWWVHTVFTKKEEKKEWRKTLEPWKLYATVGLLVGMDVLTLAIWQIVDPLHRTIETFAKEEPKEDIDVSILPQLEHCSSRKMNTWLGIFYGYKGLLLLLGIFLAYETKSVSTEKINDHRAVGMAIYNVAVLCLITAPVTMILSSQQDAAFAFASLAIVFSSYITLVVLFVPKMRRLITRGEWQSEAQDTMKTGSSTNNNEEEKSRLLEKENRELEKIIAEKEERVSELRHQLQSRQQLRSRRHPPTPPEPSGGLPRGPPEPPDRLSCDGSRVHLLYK
T1 sequence (O75899 42-941): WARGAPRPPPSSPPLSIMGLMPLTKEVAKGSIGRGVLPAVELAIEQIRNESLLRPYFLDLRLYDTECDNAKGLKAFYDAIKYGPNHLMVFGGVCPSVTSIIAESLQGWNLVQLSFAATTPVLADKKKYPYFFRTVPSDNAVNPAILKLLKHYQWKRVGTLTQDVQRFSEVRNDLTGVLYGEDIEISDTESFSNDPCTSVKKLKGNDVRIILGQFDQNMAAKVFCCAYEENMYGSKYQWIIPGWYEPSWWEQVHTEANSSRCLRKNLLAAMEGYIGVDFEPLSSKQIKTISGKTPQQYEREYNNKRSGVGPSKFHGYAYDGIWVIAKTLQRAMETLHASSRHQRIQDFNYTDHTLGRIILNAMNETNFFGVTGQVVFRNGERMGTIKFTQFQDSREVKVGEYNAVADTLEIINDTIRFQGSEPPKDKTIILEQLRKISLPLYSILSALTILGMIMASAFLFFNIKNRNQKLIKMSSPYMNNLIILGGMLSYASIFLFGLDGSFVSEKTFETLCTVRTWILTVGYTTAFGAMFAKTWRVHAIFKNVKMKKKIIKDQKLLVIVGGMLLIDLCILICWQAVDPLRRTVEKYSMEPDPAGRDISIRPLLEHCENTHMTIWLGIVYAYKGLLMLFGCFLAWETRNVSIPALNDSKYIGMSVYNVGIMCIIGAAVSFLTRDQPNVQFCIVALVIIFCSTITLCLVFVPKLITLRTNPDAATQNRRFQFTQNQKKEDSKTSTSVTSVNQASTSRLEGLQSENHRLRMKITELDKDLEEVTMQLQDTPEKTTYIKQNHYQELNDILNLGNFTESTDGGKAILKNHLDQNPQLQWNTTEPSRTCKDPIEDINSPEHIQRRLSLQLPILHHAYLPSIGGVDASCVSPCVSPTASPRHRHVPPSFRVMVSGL
T2 sequence (Q9UBS5 15-961 limits assumed): as the sequence (Q9UBS5 15-961 limits assumed) above
T2 sequence (O75899 42-941): as the sequence (O75899 42-941) above

SMILES | pEC50 [1] | pEC50 [2]
Cc1nc2ccc(Br)cc2c(-c2ccc(F)cc2)c1C(C)Oc1ccc(Cl)cc1 (stereo not drawn) [Example 2, 6-bromo-3-[1-(4-chlorophenoxy)ethyl]-4-(4-fluorophenyl)-2-methylquinoline] | 5.19 | 5.04
Cc1nc2ccc(N3CCCCC3)cc2c(-c2ccc(F)cc2)c1C(C)Oc1ccc(Cl)cc1 (stereo not drawn) [Example 4, 3-[1-(4-chlorophenoxy)ethyl]-4-(4-fluorophenyl)-2-methyl-6-piperidin-1-ylquinoline] | 6.00 | 4.62
Cc1nc2ccc(N3CCCCC3)cc2c(-c2ccc(F)cc2)c1C(C)Oc1ccccn1 (stereo not drawn) [Example 5, 4-(4-fluorophenyl)-2-methyl-6-piperidin-1-yl-3-[1-(pyridin-2-yloxy)ethyl]quinoline] | 5.74 | 
Cc1nc2ccc(N3CCCCC3)cc2c(-c2ccc(F)cc2)c1C(C)Oc1ccc(C#N)cc1 (stereo not drawn) [Example 6, 4-{1-[4-(4-fluorophenyl)-2-methyl-6-piperidin-1-ylquinolin-3-yl]ethoxy}benzonitrile] | 5.54 | 
Cc1nc2ccc(N3CCCCC3)cc2c(-c2ccc(F)cc2)c1C(C)Oc1cccc(C#N)c1 (stereo not drawn) [Example 7, 3-{1-[4-(4-fluorophenyl)-2-methyl-6-piperidin-1-ylquinolin-3-yl]ethoxy}benzonitrile] | 5.82 | 
Cc1nc2ccc(N3CCCCC3)cc2c(-c2ccc(F)cc2)c1C(C)Oc1ccc(S(C)(=O)=O)cc1 (stereo not drawn) [Example 8, 4-(4-fluorophenyl)-2-methyl-3-{1-[4-(methylsulfonyl)phenoxy]ethyl}-6-piperidin-1-ylquinoline] | 5.77 | 
Cc1nc2ccc(N3CCCCC3)cc2c(-c2ccc(F)cc2)c1C(C)Oc1cccnc1 (stereo not drawn) [Example 9, 4-(4-fluorophenyl)-2-methyl-6-piperidin-1-yl-3-[1-(pyridin-3-yloxy)ethyl]quinoline] | 5.52 | 
Cc1nc2ccc(N3CCCCC3)cc2c(-c2ccc(F)cc2)c1C(C)Oc1ccccc1Cl (stereo not drawn) [Example 10, 3-[1-(2-chlorophenoxy)ethyl]-4-(4-fluorophenyl)-2-methyl-6-piperidin-1-ylquinoline] | 5.89 | 
COc1ccc(OC(C)c2c(C)nc3ccc(N4CCCCC4)cc3c2-c2ccc(F)cc2)cc1 (stereo not drawn) [Example 11, 4-(4-fluorophenyl)-3-[1-(4-methoxyphenoxy)ethyl]-2-methyl-6-piperidin-1-ylquinoline] | 5.80 | 
Cc1nc2ccc(N3CCCCC3)cc2c(-c2ccc(F)cc2)c1C(C)Oc1cccc(N(C)C)c1 (stereo not drawn) [Example 12, (3-{1-[4-(4-fluorophenyl)-2-methyl-6-piperidin-1-ylquinolin-3-yl]ethoxy}phenyl)dimethylamine] | 5.66 | 
Cc1nc2ccc(N3CCCCC3)cc2c(-c2ccc(F)cc2)c1C(C)Oc1ccccc1C(C)C (stereo not drawn) [Example 13, 4-(4-fluorophenyl)-3-[1-(2-isopropylphenoxy)ethyl]-2-methyl-6-piperidin-1-ylquinoline] | 6.52 | 
Cc1nc2ccc(N3CCCCC3)cc2c(-c2ccc(F)cc2)c1C(C)Oc1cccc(C(N)=O)c1 (stereo not drawn) [Example 14, 3-{1-[4-(4-fluorophenyl)-2-methyl-6-piperidin-1-ylquinolin-3-yl]ethoxy}benzamide] | 5.35 | 
Cc1nc2ccc(N3CCCCC3)cc2c(-c2ccc(F)cc2)c1C(C)Oc1ccccc1C#N (stereo not drawn) [Example 15, 2-{1-[4-(4-fluorophenyl)-2-methyl-6-piperidin-1-ylquinolin-3-yl]ethoxy}benzonitrile] | 6.05 | 
Cc1nc2ccc(N3CCCCC3)cc2c(-c2ccc(F)cc2)c1C(C)n1ccccc1=O (stereo not drawn) [Example 16, 1-{1-[4-(4-fluorophenyl)-2-methyl-6-piperidin-1-ylquinolin-3-yl]ethyl}pyridin-2(1H)-one] | 4.62 | 
Cc1nc2ccc(N3CCN(C)CC3)cc2c(-c2ccc(F)cc2)c1C(C)Oc1ccc(Cl)cc1 (stereo not drawn) [Example 17, 3-[1-(4-chlorophenoxy)ethyl]-4-(4-fluorophenyl)-2-methyl-6-(4-methylpiperazin-1-yl)quinoline] | 5.12 | 
Cc1nc2ccc(N3CCN(C)CC3)cc2c(-c2ccc(F)cc2)c1C(C)Oc1ccccc1C(C)C (stereo not drawn) [Example 18, 4-(4-fluorophenyl)-3-[1-(2-isopropylphenoxy)ethyl]-2-methyl-6-(4-methylpiperazin-1-yl)quinoline] | 5.37 | 
Cc1nc2ccc(N3CCCCC3)cc2c(-c2ccc(F)cc2)c1C(C)Oc1ccc(O)cc1 (stereo not drawn) [Example 19, 4-{1-[4-(4-fluorophenyl)-2-methyl-6-piperidin-1-ylquinolin-3-yl]ethoxy}phenol] | 5.92 | 
Cc1nc2ccc(Br)cc2c(-c2ccc(F)cc2)c1C(=O)OC(C)(C)C [Example 20, tert-butyl 6-bromo-4-(4-fluorophenyl)-2-methylquinoline-3-carboxylate] |  | 5.51
Cc1nc2ccc(N3CCCCC3)cc2c(-c2ccc(F)cc2)c1COc1ccc(Cl)cc1 [Example 25, 3-[(4-chlorophenoxy)methyl]-4-(4-fluorophenyl)-2-methyl-6-piperidin-1-ylquinoline] | 5.96 | 
